Legend:
Format in all cases: in vivo
[1] = system: purple deadnettle (Lamium purpureum); assay: Postemergence herbicidal activity in oilseed rape (canola), purple deadnettle; parameters: unit not given here; settings: oilseed rape (canola) test, visual rating after 21 d, probit analysis, dose to kill or control 80 percent
Protocol: (§1) Seeds of oilseed rape (canola) and the desired weed species were planted in Sun Gro MetroMix® 360 planting mixture, which typically has a pH of 6.0 to 6.8 and an organic matter content of about 30 percent, in plastic pots with a surface area of 95 cm^2. When required to ensure good germination and healthy plants, a fungicide treatment and/or other chemical or physical treatment was applied. The plants were grown for 15-28 d in a greenhouse with an approximate 15-h photoperiod which was maintained at about 23-29° C. during the day and 22-28° C. during the night. Nutrients and water were added on a regular basis and supplemental lighting was provided with overhead metal halide 1000-Watt lamps as necessary. The oilseed rape (canola) plants were utilized for testing when they reached the third or fourth true leaf stage. The weed species were utilized at the fourth true leaf stage.
(§2) A weighed amount, determined by the highest rate to be tested, of each test compound was dissolved in 4 mL of a 97:3 v/v mixture of acetone and DMSO to obtain concentrated stock solutions. […] The concentrated stock solutions obtained were diluted with 20 mL of an aqueous mixture containing acetone, water and Agri-Dex crop oil concentrate, in a 16.7:82.1:1.25 v/v ratio to obtain spray solutions containing the highest application rates. Additional application rates were obtained by serial dilution of 12 mL of the high rate solution into a solution containing 2 mL of 97:3 v/v mixture of acetone and DMSO and 10 mL of an aqueous mixture containing acetone, water and Agri-Dex crop oil concentrate, in a 16.7:82.1:1.25 v/v ratio to obtain ½×, ¼×, ⅛× and 1/16× rates of the high rate. Compound requirements are based upon a 12 mL application volume at a rate of 187 L/ha. Formulated compounds were applied to the plant material with an overhead Mandel track sprayer equipped with 8002E nozzles calibrated to deliver 187 L/ha over an application area of 0.503 m^2 at a spray height of 18 inches (43 cm) above the average plant canopy height. Control plants were sprayed in the same manner with the solvent blank.
(§3) The treated plants and control plants were placed in a greenhouse as described above and watered by sub-irrigation to prevent wash-off of the test compounds. After 21 d, the condition of the test plants as compared with that of the untreated plants was determined visually and scored on a scale of 0 to 100 percent where 0 corresponds to no injury and 100 corresponds to complete kill.
(§4) By applying the well-accepted probit analysis as described by J. Berkson in Journal of the American Statistical Society 1953, 48, 565, and by D. Finney in “Probit Analysis” Cambridge University Press (1952), the above data can be used to calculate GR20 and GR80 values, which are defined as growth reduction factors that correspond to the effective dose of herbicide required to kill or control 20 percent or 80 percent, respectively, of a target plant.

[2] = system: lambsquarters (Chenopodium album); assay: Postemergence herbicidal activity in oilseed rape (canola), lambsquarters; parameters: unit: g ai/ha; settings: oilseed rape (canola) test, visual rating after 21 d, probit analysis, dose to kill or control 80 percent
Protocol: as §1, §2, §3, §4

[3] = system: wild buckwheat (Polygonum convululus); assay: Postemergence herbicidal activity in corn, wild buckwheat; settings: corn test, visual rating after 21 d, probit analysis, dose to kill or control 80 percent
Protocol: as §1, with “corn” for “oilseed rape (canola)”, “MetroMix” for “MetroMix®”, “7-21” for “15-28”, “second” for “third or fourth”, “first or second” for “fourth”
A weighed amount, determined by the highest rate to be tested, of each test compound was dissolved in 4 mL of a 97:3 v/v mixture of acetone and DMSO to obtain concentrated stock solutions. […] The concentrated stock solutions obtained were diluted with 20 mL of an aqueous mixture containing acetone, water, isopropyl alcohol, DMSO, Atplus 411F crop oil concentrate, and Triton X-155 surfactant in a 48.5:39:10:1.5:1.0:0.02 v/v ratio to obtain spray solutions containing the highest application rates. […]
as §3, with “kill. […]” for “kill.”

[4] = system: winter oilseed rape (canola) (Brassica napus); assay: Postemergence herbicidal activity in oilseed rape (canola), crop; parameters: unit not given here; settings: visual rating after 21 d, probit analysis, dose to kill or control 20 percent
Protocol: as §1, §2, §3, §4

SMILES	LAMPU GR80 [1]	CHEAL GR80 [2]	POLCO GR80 [3]	BRSNW GR20 [4]
COc1c(Cl)ccc(-c2cc(N)c(Cl)c(C(=O)NOCC(C)C)n2)c1F [Compound 1, 4-amino-3-chloro-6-(4-chloro-2-fluoro-3-methoxyphenyl)-N-(2-methylpropoxy)picolinamide]	<4.38	<8.75	<4 g ai/ha	>70
CONC(=O)c1nc(-c2ccc(Cl)c(OC)c2F)cc(N)c1Cl [Compound 2, 4-Amino-3-chloro-6-(4-chloro-2-fluoro-3-methoxyphenyl)-N-methoxypicolinamide]	<4.38	22	6 g ai/ha	>70

— patent publication US20130324412A1, “N-ALKOXYAMIDES OF 6-(SUBSTITUTED PHENYL)-4-AMINOPICOLINATES AND 2-(SUBSTITUTED PHENYL)-6-AMINO-4-PYRIMIDINECARBOXYLATES AND THEIR USE AS SELECTIVE HERBICIDES FOR CROPS” (DOW AGROSCIENCES LLC, priority 2009, published 2013)
